XRPD post-cycling and XRPD post-stability data for 13 molecules are collected here from patent publication US10584124B2, “Crystalline forms” (Array BioPharma Inc., priority 2017, dated 2020).

The data set in a line: Primary salt screen of the compound of Formula II: XRPD post-cycling and post-stability (40° C., 75% RH overnight). It is filed as physicochemical. The conditions noted are these: compound of Formula II + the acid given as label; for XRPD post-cycling: cycled RT/40° C. over 24 hours; for XRPD post-stability: 40° C. and 75% RH overnight. Here is the method: The salt screen was performed as follows. […] In cases where stock solutions could not be attained, the acid was added neat to the solution of the compound of Formula II.
The samples were then temperature cycled between ambient (RT) and 40° C. in 4-hour cycles over 24 hours. Each mixture was filtered and isolated solids were analyzed (wet) by XRPD to determine crystallinity and form. Samples in which solid was not observed were stored uncapped to allow solvent evaporation. The remaining samples were placed in an oven at 40° C. and 75% RH overnight. The samples were then reanalyzed by XRPD to determine any changes in form or crystallinity. The observations and results, including the different diffractogram patterns observed during the screen, are shown in Tables 29-53, below, and FIGS. 24A-24B through 47A-47B.

For `O=S(=O)(O)CCS(=O)(=O)O` [1,2-Ethane disulfonic acid], the XRPD post-cycling entry is, setting by setting: (Acetone/water (10%)) “No solid”; (Dioxane/water (10%)) “No solid”; (EtOH/water (10%)) “No solid”; (IPA/water (10%)) “No solid”; (MeCN/water (20%)) “No solid”; (THF/water (1%)) “No solid”. For the same molecule, the XRPD post-stability entry is recorded as “No solid” (from Acetone/water (10%)); “No solid” (from Dioxane/water (10%)); “No solid” (from EtOH/water (10%)); “No solid” (from IPA/water (10%)); “No solid” (from MeCN/water (20%)); “No solid” (from THF/water (1%)).
Turning to `O=S(=O)(O)CCO` [2-Hydroxy ethanesulfonic acid], the XRPD post-cycling entry by setting is: (Dioxane/water (10%)) “Form 7”; (EtOH/water (10%)) “Form 7”. Also, the XRPD post-stability result is, setting by setting: (from Dioxane/water (10%)) “Form 7”; (from EtOH/water (10%)) “Form 7”.
For the molecule `O=S(=O)(O)c1ccccc1` [Benzene sulfonic acid], the XRPD post-cycling result by setting is: (Dioxane/water (10%)) “No solid”; (EtOH/water (10%)) “Form 2”; (IPA/water (10%)) “Form 2”; (MeCN/water (20%)) “No solid”; (THF/water (1%)) “No solid”. Further, the XRPD post-stability entry (from Dioxane/water (10%)) is “No solid”; the XRPD post-stability entry (from EtOH/water (10%)) is given as “Form 2”; the XRPD post-stability entry (from IPA/water (10%)) is “Form 2”; the XRPD post-stability entry (from MeCN/water (20%)) is given as “No solid”; the XRPD post-stability result (from THF/water (1%)) is listed as “No solid”.
Regarding `CCS(=O)(=O)O` [Ethane sulfonic acid], the XRPD post-cycling result is, setting by setting: (Acetone/water (10%)) “No solid”; (Dioxane/water (10%)) “No solid”; (EtOH/water (10%)) “No solid”; (IPA/water (10%)) “Amorphous”; (MeCN/water (20%)) “No solid”; (THF/water (1%)) “No solid”. Also, the XRPD post-stability entry is given as “No solid” (from Acetone/water (10%)); “No solid” (from Dioxane/water (10%)); “No solid” (from EtOH/water (10%)); “Amorphous” (from IPA/water (10%)); “No solid” (from MeCN/water (20%)); “No solid” (from THF/water (1%)).
On to `Cl` [Hydrochloric acid], for which the XRPD post-cycling result (Acetone/water (10%)) is reported as “Form 2”; the XRPD post-cycling entry (Dioxane/water (10%)) is given as “Form 2”; the XRPD post-cycling result (EtOH/water (10%)) is “Form 2”; the XRPD post-cycling result (IPA/water (10%)) is “Form 2”; the XRPD post-cycling result (MeCN/water (20%)) is “Form 2”; the XRPD post-cycling result (THF/water (1%)) was “Form 2”. Moreover, the XRPD post-stability entry is on record as “Form 2” (from Acetone/water (10%)); “Form 2” (from Dioxane/water (10%)); “Form 2” (from EtOH/water (10%)); “Form 2” (from IPA/water (10%)); “Form 2” (from MeCN/water (20%)); “Form 2” (from THF/water (1%)).
With `N[C@@H](CC(=O)O)C(=O)O` [L-Aspartic acid], the XRPD post-cycling entry by setting is: (IPA/water (10%)) “Form 8”; (THF/water (1%)) “Form 8”. Besides, the XRPD post-stability entry reads like this: (from Acetone/water (10%)) “Form 14”; (from IPA/water (10%)) “Form 8”; (from MeCN/water (20%)) “Form 8”; (from THF/water (1%)) “Form 8”.
On to `O=C(O)/C=C\C(=O)O` [Maleic acid], for which the XRPD post-cycling entry is given as “Amorphous” (Acetone/water (10%)); “No solid” (Dioxane/water (10%)); “Amorphous” (EtOH/water (10%)); “Amorphous” (IPA/water (10%)); “No solid” (MeCN/water (20%)). Besides, the XRPD post-stability result is on record as “Amorphous” (from Acetone/water (10%)); “No solid” (from Dioxane/water (10%)); “Amorphous” (from EtOH/water (10%)); “Amorphous” (from IPA/water (10%)); “No solid” (from MeCN/water (20%)); “Form 15” (from THF/water (1%)).
As for `CS(=O)(=O)O` [Methane sulfonic acid], the XRPD post-cycling result is, setting by setting: (Acetone/water (10%)) “Amorphous”; (Dioxane/water (10%)) “No solid”; (EtOH/water (10%)) “Amorphous”; (IPA/water (10%)) “Form 2”; (MeCN/water (20%)) “No solid”; (THF/water (1%)) “No solid”. The XRPD post-stability result by setting is: (from Acetone/water (10%)) “Amorphous”; (from Dioxane/water (10%)) “No solid”; (from EtOH/water (10%)) “Amorphous”; (from IPA/water (10%)) “Form 2”; (from MeCN/water (20%)) “No solid”; (from THF/water (1%)) “No solid”.
Regarding `O=S(=O)(O)c1ccc2ccccc2c1` [Naphthalene-2-sulfonic acid], the XRPD post-cycling entry is “Form 2” (EtOH/water (10%)) and “Form 5” (THF/water (1%)). Moreover, the XRPD post-stability result (from EtOH/water (10%)) was “Form 2”.
For the molecule `O=C(O)C(=O)O` [Oxalic acid], the XRPD post-cycling entry reads like this: (Acetone/water (10%)) “Amorphous”; (Dioxane/water (10%)) “Form 6”; (EtOH/water (10%)) “Amorphous”; (IPA/water (10%)) “Amorphous”; (MeCN/water (20%)) “No solid”; (THF/water (1%)) “No solid”. The XRPD post-stability entry runs as follows: (from Dioxane/water (10%)) “Form 6”; (from EtOH/water (10%)) “Form 6”; (from IPA/water (10%)) “Form 6”; (from MeCN/water (20%)) “No solid”; (from THF/water (1%)) “No solid”.
Take `O=P(O)(O)O` [Phosphoric acid]: the XRPD post-cycling entry runs as follows: (Acetone/water (10%)) “Form 9”; (Dioxane/water (10%)) “No solid”; (IPA/water (10%)) “Form 10”; (MeCN/water (20%)) “No solid”; (THF/water (1%)) “Amorphous”. The XRPD post-stability result is “No solid” (from Dioxane/water (10%)); “Form 10” (from EtOH/water (10%)); “Form 10” (from IPA/water (10%)); “No solid” (from MeCN/water (20%)); “Form 10” (from THF/water (1%)).
In the case of `O=S(=O)(O)O` [Sulfuric acid], the XRPD post-cycling result was “No solid” (Acetone/water (10%)); “No solid” (Dioxane/water (10%)); “No solid” (EtOH/water (10%)); “Form 3” (IPA/water (10%)); “No solid” (MeCN/water (20%)); “No solid” (THF/water (1%)). For the same molecule, the XRPD post-stability entry (from Acetone/water (10%)) was “No solid”; the XRPD post-stability entry (from Dioxane/water (10%)) is reported as “No solid”; the XRPD post-stability result (from EtOH/water (10%)) is on record as “No solid”; the XRPD post-stability entry (from IPA/water (10%)) is listed as “Form 5”; the XRPD post-stability entry (from MeCN/water (20%)) is listed as “No solid”; the XRPD post-stability entry (from THF/water (1%)) was “No solid”.
As for `Cc1ccc(S(=O)(=O)O)cc1` [p-Toluene sulfonic acid], the XRPD post-cycling entry is listed as “Form 4” (Acetone/water (10%)); “No solid” (Dioxane/water (10%)); “Amorphous” (EtOH/water (10%)); “Amorphous” (IPA/water (10%)); “No solid” (MeCN/water (20%)). In addition, the XRPD post-stability entry by setting is: (from Acetone/water (10%)) “Form 4”; (from Dioxane/water (10%)) “No solid”; (from EtOH/water (10%)) “Amorphous”; (from IPA/water (10%)) “Form 4”; (from MeCN/water (20%)) “No solid”; (from THF/water (1%)) “Form 4”.
